Assay results taken from patent publication US5594009A, “Fused pyrrolocarbazoles” (priority 1995, dated 1997).

Key:
protein kinase C = experiment: PKC Activity Inhibition Assay; format: biochemical
Protocol: Fused pyrrolocarbazoles inhibited the activity of protein kinase C (Table VI). The protein kinase C assay has been disclosed (Murakata et al., U.S. Pat. No. 4,923,986; Kikkawa et al., J. Biol. Chem. 257:13341-13348 (1982)). The assay was performed with several concentrations of fused pyrrolocarbazoles. The concentration at which protein kinase C was 50% inhibited (IC50) was determined.

[1] = test system: choline acetyltransferase (ChAT) activity in dissociated rat embryonic spinal cord culture; experiment: Spinal Cord ChAT Activity Assay; format: cell-based; conditions: ChAT measured after 48 hours
[2] = test system: NT-3 induced ChAT activity of rat basal forebrain cultures; experiment: Enhancement of Neurotrophin (NT-3) Activity Assay, ChAT activity in basal forebrain cultures; format: cell-based; conditions: for ChAT activity in the absence of NT-3: compound added alone to basal forebrain neurons, no NT-3; for ChAT activity in the presence of NT-3: with 100 ng/ml NT-3
Protocol: Fused pyrrolocarbazoles were tested for the ability to enhance the activity of the neurotrophin NT-3 in basal forebrain cultures. ChAT activity was assayed as a measure of cholinergic neuron function and survival. The concentration of NT-3 (100 ng/ml) used in these experiments increased ChAT activity over control cultures (untreated with NT-3 or a fused pyrrolocarbazole) by 140%.
Methods. Basal forebrain cultures were prepared from embryonic rats (embryonic day 17) and dissociated with the neutral protease Dispase™. Cells were plated at a density of 4×10^5 cells/cm^2 on poly-1-ornithine coated plastic tissue culture plates in a mixture of DMEM and F12 media (50/50 v/v GIBCO) supplemented with 5% horse serum and 0.5% fetal bovine serum. Cells were incubated at 37° C. in a humidified atmosphere of 5% CO2 /95% air for 5 days. ChAT activity was measured as described in Example III(A)(1).
Recombinant rat NT-3 was produced by using a recombinant baculovirus expression vector under the control of the polyhedron virus promoter (Fraser, In Vitro Cell. and Dev. Biol. 25:225-235 (1989)). The plasmid pXM-NT3 (Hallbook et al., Neuron 6:845-858 (1991), which contained the rat NT-3 cDNA clone, was provided by Dr. Ira Black (University of Medicine and Dentistry of New Jersey, Piscataway, N.J.). NT-3 cDNA was subcloned into the transfer vector pVL1392 (In Vitrogen Corp., San Diego, Calif.) for recombinant virus production. Recombinant baculovirus was produced as described in Meyer et al. (Meyer at al., J. Neurochem 62:825-833 (1994)).

trkA tyrosine kinase = trkA tyrosine kinase (Homo sapiens, UniProt P04629); experiment: trkA Tyrosine Kinase Activity Inhibition Assay (ELISA); format: biochemical; conditions: 16 μM ATP, 37° C., 15 min; read-out: INHIBITION OF trkA KINASE IC50
[3] = test system: ChAT activity of basal forebrain cultures; experiment: Basal Forebrain ChAT Activity Assay; format: cell-based, rat; conditions: for activity at 0.25 µM: 250 nM
Protocol: Fused pyrrolocarbazoles were tested for the ability to increase ChAT activity of basal forebrain cultures.
Methods: The basal forebrain was dissected from rat embryos (day 17 or 18 embryos) and the cells were dissociated with a neutral protease (Dispase™, Collaborative Research). Neurons were plated at a density of 5×10^4 cells/well (1.5×10^5 cells/cm^2) in poly-1-ornithine and laminin coated plates. Cells were cultured in serum-free N2 medium containing 0.05% BSA at 37° C. in a humidified atmosphere, 5% CO2 /95% air. ChAT activity was assessed 5 days after plating by using the ChAT assay as described in Example III(A)(1).

chick DRG neurons = experiment: DRG Neuron Survival Assay (calcein AM); format: cell-based; conditions: 48 hours; for viability at 0.1 µM / viability at 0.25 µM / viability at 0.5 µM: Gallus gallus, DRG neuron, read-out: Neuronal Survival (% of Control); for viability at 0.25 µM: 250 nM; for viability at 0.5 µM: 500 nM
Protocol: Fused pyrrolocarbazoles promoted dorsal root ganglion (DRG) neuronal survival in cultures of chick DRG neurons. Cell survival was measured by uptake of calcein AM, an analog of the viable dye, fluorescein diacetate. Calcein is taken up by viable cells and cleaved intracellularly to fluorescent salts which are retained by intact membranes of viable cells. Microscopic counts of viable neurons correlate directly with relative fluorescence values obtained with the fluorimetric viability assay. This method thus provides a reliable and quantitive measurement of cell survival in the total cell population of a given culture (Bozyczko-Coyne et al., J. Neur. Meth. 50:205-216, 1993).
Methods: Dorsal root ganglia were dissected from embryonic age day 9 chick embryos and dissociated cells prepared by subsequent Dispase (neutral protease, Collaborative Research) dissociation. Neurons were seeded at low density (3×10^4 cells/cm^2) into 96 well poly-L-ornithine and laminin coated plates. Cells were cultured for 48 hours in serum-free N2 medium (Bottenstein and Sato, 1979) at 37° C. in a humidified atmosphere, 5% CO2 /95% air. Cell survival was assessed at 48 hours using the viable fluorimetric assay described above.

[4] = test system: lumbar motoneurons of chick embryos; experiment: Inhibition of Motoneuron Death In Ovo; format: in vivo; conditions: for % of motoneurons rescued versus control / Number of motoneurons mean ± SD: E6-E9; for Number of motoneurons mean ± SD: one side of spinal cord
Protocol: The samples (50 ul) were applied to the vascularized chorioallantoic membrane through a window in the egg shell as previously described (Oppenheim et al., 1988). Embryos were sacrificed on E10 and spinal cords were removed, fixed in Carnoy's solution (10% acetic acid, 60% ethanol, 30% chloroform), embedded in paraffin, sectioned at 8 um, and stained with thionin as described previously (Oppenheim et al., 1988). Motoneurons (identified by morphology and position) were counted by an individual blind to the treatment conditions in every tenth section according to previously established criteria (Oppenheim et al., 1982, Oppenheim, 1986).

[5] = Rattus norvegicus, 120 h, 100 nM, read-out: ChAT Activity (% of Control)
[6] = Rattus norvegicus, 120 h, read-out: ChAT Activity (% of Control)

trkA tyrosine kinase, sequence (P04629 33-796): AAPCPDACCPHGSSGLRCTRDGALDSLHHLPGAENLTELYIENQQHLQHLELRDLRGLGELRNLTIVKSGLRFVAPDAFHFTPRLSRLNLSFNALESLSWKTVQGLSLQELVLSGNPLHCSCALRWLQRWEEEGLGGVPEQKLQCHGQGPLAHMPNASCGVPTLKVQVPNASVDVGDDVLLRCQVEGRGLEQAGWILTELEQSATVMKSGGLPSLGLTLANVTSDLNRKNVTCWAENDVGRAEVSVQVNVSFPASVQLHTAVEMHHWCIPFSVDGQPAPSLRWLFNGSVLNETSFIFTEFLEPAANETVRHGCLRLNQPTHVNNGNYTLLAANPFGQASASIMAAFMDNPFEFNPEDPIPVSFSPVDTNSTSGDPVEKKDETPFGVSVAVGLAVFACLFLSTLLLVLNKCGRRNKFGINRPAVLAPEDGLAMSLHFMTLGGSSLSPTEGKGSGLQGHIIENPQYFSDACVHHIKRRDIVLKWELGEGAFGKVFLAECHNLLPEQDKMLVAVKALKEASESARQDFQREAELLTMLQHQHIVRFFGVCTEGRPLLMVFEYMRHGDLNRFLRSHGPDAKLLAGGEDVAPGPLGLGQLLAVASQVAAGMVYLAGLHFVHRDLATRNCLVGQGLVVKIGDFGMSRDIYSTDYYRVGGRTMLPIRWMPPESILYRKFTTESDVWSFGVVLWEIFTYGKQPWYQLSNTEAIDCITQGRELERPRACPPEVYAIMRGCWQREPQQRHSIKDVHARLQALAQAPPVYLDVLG

O=C1NC(=O)c2c1c1c(c3[nH]c4ccc(Br)cc4c23)Cc2ccccc2-1 [Compound I-6, 3-Bromo-6H, 12H, 13H-indeno[2,3-c]pyrrolo[3,4-c]carbazole-5,7(5H, 7H),-dione]
IC50 (protein kinase C): 1000 nM | Spinal Cord ChAT Activity, % of Control, untreated cultures [1]: 209 % of Control | ChAT activity in the absence of NT-3 [2]: no effect on ChAT activity | ChAT activity in the presence of NT-3 [2]: enhanced ChAT activity

O=C1NCc2c1c1c(c3[nH]c4ccc(F)cc4c23)Cc2ccccc2-1 [Compound I-12, 3-Fluoro-5H, 6H, 12H, 13H-indeno[2,3-a]pyrrolo[3,4-c]carbazole-7(7H)one]
IC50 (protein kinase C): 85 nM | Spinal Cord ChAT Activity, % of Control, untreated cultures [1]: 173 % of Control | IC50 (trkA tyrosine kinase): 26.7 nM | activity at 0.1 µM [3, 5]: 279% | activity at 0.25 µM [3, 6]: 389% | viability at 0.1 µM (chick DRG neurons; 100 nM): 126% | viability at 0.25 µM (chick DRG neurons): 165% | viability at 0.5 µM (chick DRG neurons): 178%

O=C1NCc2c3c(c4[nH]c5ccccc5c4c21)CCc1ccccc1-3 [Compound I-16, 12,13-dihydro-6H, 7H, 14H-naphthyl[3,4-a]pyrrolo[3,4-c]carbazole-5(5H)one]
IC50 (protein kinase C): 35 nM | Spinal Cord ChAT Activity, % of Control, untreated cultures [1]: 142 % of Control

O=C1NCc2c1c1c(c3[nH]c4ccccc4c23)CCc2ccccc2-1 [Compound I-17, 12,13-Dihydro-5H, 6H, 14H-naphthy[3,4-a]pyrrolo[3,4-c]carbazole-7(7H)one]
IC50 (protein kinase C): 1000 nM | Spinal Cord ChAT Activity, % of Control, untreated cultures [1]: 197 % of Control | IC50 (trkA tyrosine kinase): 66 nM

O=C1NCc2c1c1c(c3[nH]c4ccc(F)cc4c23)CCc2ccccc2-1 [Compound I-22, 12,13-Dihydro-3-fluoro-5H, 6H, 14H-naphthyl[3,4-a]pyrrolo[3,4-c]carbazole-7(7H)one]
IC50 (protein kinase C): 250 nM | Spinal Cord ChAT Activity, % of Control, untreated cultures [1]: 143 % of Control

O=C1NCc2c3c(c4[nH]c5ccc(F)cc5c4c21)Cc1ccccc1-3 [Compound I-23, 3-Fluoro-6H, 7H, 12H, 13H -indeno[2,3-a]pyrrolo[3,4-c]carbazole-5(5H)one]
IC50 (protein kinase C): 60 nM | Spinal Cord ChAT Activity, % of Control, untreated cultures [1]: 208 % of Control | IC50 (trkA tyrosine kinase): 70.6 nM | Neuronal Survival (% of Control) (chick DRG neurons; 100 nM): inactive | viability at 0.25 µM (chick DRG neurons): 128% | viability at 0.5 µM (chick DRG neurons): 135%

C=CCn1c2ccccc2c2c3c(c4c(c21)Cc1ccccc1-4)C(=O)NC3 [Compound I-26, 13-Allyl-5H,6H,12H-indeno[2,3-a]pyrrolo[3,4-c]carbazole-7(7H)one]
IC50 (protein kinase C): 300 nM | Spinal Cord ChAT Activity, % of Control, untreated cultures [1]: 167 % of Control

O=C1NCc2c1c1c(c3[nH]c4ccc(CCc5ccccn5)cc4c23)Cc2ccccc2-1 [Compound I-34]
% of motoneurons rescued versus control ([4]; 0.015 ug/egg daily): 11% | Number of motoneurons mean ± SD ([4]; 0.015 ug/egg daily): 10480 ± 585 | % of motoneurons rescued versus control ([4]; 0.15 ug/egg daily): 7% | Number of motoneurons mean ± SD ([4]; 0.15 ug/egg daily): 10135 ± 354 | % of motoneurons rescued versus control ([4]; 0.3 ug/egg daily): 23% | Number of motoneurons mean ± SD ([4]; 0.3 ug/egg daily): 11593 ± 654 | % of motoneurons rescued versus control ([4]; 0.6 ug/egg daily): 27% | Number of motoneurons mean ± SD ([4]; 0.6 ug/egg daily): 11976 ± 1106 | increase in motoneuron survival in treated vs. control embryos, maximal effect ([4]; 0.6 ug/egg, vehicle-treated control): 27% | number of surviving lumbar motoneurons / naturally occurring motoneuron death (in words) ([4]; daily application to chorioallantoic membrane, E6 to E9): dose-dependent increase in the number of surviving lumbar motoneurons | dose at which the maximal effect was achieved ([4]; daily dose): 0.6 ug/egg | Spinal Cord ChAT Activity, % of Control, untreated cultures [1]: 254 % of Control | ChAT Activity (% of Control) ([3]; 100 nM): inactive | ChAT Activity (% of Control) ([3]; 500 nM): inactive | ChAT Activity (% of Control) ([3]; 1000 nM): inactive | activity at 0.25 µM [3, 6]: 192% | viability at 0.1 µM (chick DRG neurons; 100 nM): 159% | viability at 0.25 µM (chick DRG neurons): 203% | viability at 0.5 µM (chick DRG neurons): 207%

C#Cc1ccc2[nH]c3c4c(c5c(c3c2c1)CNC5=O)-c1ccccc1C4 [Compound I-36, 3-Ethynyl-5H,6H,12H,13H-indeno[2,3-a]pyrrolo[3,4-c]carbazole-7(7H)one]
Spinal Cord ChAT Activity, % of Control, untreated cultures [1]: 167 % of Control | ChAT Activity (% of Control) ([3]; 1000 nM): inactive | activity at 0.1 µM [3, 5]: 122% | activity at 0.25 µM [3, 6]: 131% | activity at 0.5 µM ([3]; Rattus norvegicus, 120 h, 500 nM, read-out: ChAT Activity (% of Control)): 123%

O=C1NC(=O)c2c1c1c(c3[nH]c4cc(Cl)ccc4c23)Cc2ccccc2-1 [Compound Ia-1, 2-Chloro-6H , 12H, 13H-indeno[2,3a]pyrrolo[3,4-c]carbazole-5,7(5H, 7H)-dione]
Spinal Cord ChAT Activity, % of Control, untreated cultures [1]: 139 % of Control | ChAT activity in the absence of NT-3 [2]: no effect on ChAT activity | ChAT activity in the presence of NT-3 [2]: enhanced ChAT activity

O=C1NC(=O)c2c1c1c(c3[nH]c4ccccc4c23)Cc2ccc(Br)cc2-1 [Compound Ib-2]
Spinal Cord ChAT Activity, % of Control, untreated cultures [1]: 153 % of Control

mixture of 13-Methyl-6H, 7H, 12H-indeno[2,3-a]pyrrolo[3,4-c]carbazole-5(5H)one and 13-methyl-5H, 6H, 12H-indeno[2,3-a]pyrrolo[3,4,-c]carbazole-7(7H)one [Compound I-5]
Spinal Cord ChAT Activity, % of Control, untreated cultures [1]: 137 % of Control

B1: NT-3: Recombinant rat NT-3 produced by using a recombinant baculovirus expression vector (protein, UniProt P18280 140-258, looked up)
Neurotrophin-3: YAEHKSHRGEYSVCDSESLWVTDKSSAIDIRGHQVTVLGEIKTGNSPVKQYFYETRCKEARPVKNGCRGIDDKHWNSQCKTSQTYVRALTSENNKLVGWRWIRIDTSCVCALSRKIGRT
modifications: baculovirus-expressed
notes: Recombinant rat NT-3 produced by using a recombinant baculovirus expression vector
increase of ChAT activity over control cultures ([2]; NT-3 100 ng/ml, control untreated with NT-3 or fused pyrrolocarbazole): 140%
